In patent US12116371B2, “Substituted pyridines as irreversible inhibitors of menin-MLL interaction” (BIOMEA FUSION, INC., priority 2018, dated 2024):
pIC50: −log10 of the molar value. Like-named read-outs stand apart in the source and are kept apart here.

Legend:
Conditions in all cases: for pIC50 / IC50: Homo sapiens
[1] = tested on: MIAPaCa-2 cells; assay: Proliferation assay, cells in adhesion; format: cell-based
[2] = tested on: KG-1 cells; assay: Long term proliferation assay, InCell read-out; format: cell-based
Method: (§1) Compounds of invention are tested in the 5 suspension lines by 14-day long-term proliferation assay.
(§2) The compound is tested in 10-pt dose titration (client will determine the starting concentration and the dilution scheme) and the final DMSO concentration is kept at 0.2%.
(§3) On Day 0, in a flat bottom 96-well plate, add 100 μL of cells per well at the densities optimized. Prepare compounds in DMSO at 500× final concentration. Dilute the compounds with DMSO at the dilution. Dilute the compounds in media at 3× final concentration. Add 50 μL of compound or DMSO at 3× final concentration to each well. Final volume in each well is 150 μL, and final concentration of DMSO is 0.2%. Also include 3 untreated control wells, by adding 50 μL of media alone. Incubate plates for 96 hours.
(§4) To do this take the total viable cell count calculated using step: • 1. Take the average of the replicates for each dose in order to be used in splitting the cells. • 2. Use a 96 well V-bottom plate to spin down the cells to remove old media and compound to split the cells. • 3. Based on the split ratio place the proper amount of media and cells into the V-bottom plate, and spin the plate at 1100 rpm for 5 minutes. • 4. Following the spin remove the media, careful not to disturb the cell pellet. Re-suspend pellet in 100 μL fresh media, and add to a new 96-well flat bottom plate. • 5. Add fresh compound, in the same manner as Step 3). • 6. Incubate plates for 72 hours. Repeat steps 5)-10) on Day 7. • 7. Incubate plates for 96 hours. Repeat Step 5)-10) on Day 11. • 8. Incubate 72 hours and repeat step 5) to take a final count. • 9. Data Analysis
(§5) To calculate growth for days 4, 7, 11, and 14: • 1. Calculate the split factor for day 4 to 7, day 7 to 11, and day 11-14. The split factor is the viable cells/mL on Day X (either 4, 7 or 11) divided by the density the cells are being split back to. • 2. For growth of cells from day 4 to 7, multiply the day 7 viable cells/mL density by the split factor from day 4. • 3. For growth of cells from day 7 to 11, multiply the day 11 viable cells/mL density by the days 4, and 7 split factors. • 4. For growth of cells from Day 11 to 14, multiply the Day 14 viable cells/mL density by the days 4, 7, and 11 split factors. • 5. Plot growth on semi-log chart (viable cells/mL on Y axis, in log, and days on X axis). • 6. The growth inhibition was calculated with the formula ((untreated cell numbers-treated cell numbers)/untreated cell)). • 7. Calculate the IC50 for each compound in each line using XLFit (Sigmoidal Dose-Response Model, y=(Bottom+((Top-Bottom)/(1+((IC50/×)^Hill))))).

[3] = tested on: OCI-AML-3 cells; assay: Long term proliferation assay, InCell read-out; format: cell-based
Method: as §1, §2, §3, §4, §5

[4] = tested on: MOLM-13 cells; assay: Long term proliferation assay, InCell read-out; format: cell-based, human
Method: as §1, §2, §3, §4, §5

[5] = tested on: MV4-11 cells; assay: Long term proliferation assay, InCell read-out; format: cell-based, human
Method: as §1, §2, §3, §4, §5

[6] = tested on: NCI-H23 cells; assay: Proliferation assay, cells in adhesion; format: cell-based
[7] = MIA PaCa-2, MIAPaCa-2, T4, read-out: IC50
[8] = MIA PaCa-2, MIAPaCa-2, T4, read-out: pIC50 (converted)
[9] = MIA PaCa-2, MIAPaCa-2, T7, read-out: IC50
[10] = MIA PaCa-2, MIAPaCa-2, T7, read-out: pIC50 (converted)
[11] = MIA PaCa-2, MIAPaCa-2, T11, read-out: IC50
[12] = MIA PaCa-2, MIAPaCa-2, T11, read-out: pIC50 (converted)
[13] = KG-1, 96 h, KG-1, Day 4, read-out: Day 4 IC50
[14] = KG-1, 264 h, KG-1, Day 11, read-out: Day 11 IC50
[15] = KG-1, KG-1, T4, read-out: pIC50 (converted)
[16] = KG-1, KG-1, T11, read-out: IC50
[17] = KG-1, KG-1, T11, read-out: pIC50 (converted)
[18] = OCI-AML-3, 96 h, OCI-AML-3, Day 4, read-out: Day 4 IC50
[19] = OCI-AML-3, 264 h, OCI-AML-3, Day 11, read-out: Day 11 IC50
[20] = OCI-AML-3, OCI-AML3, T4, read-out: IC50
[21] = OCI-AML-3, OCI-AML3, T4, read-out: pIC50 (converted)
[22] = OCI-AML-3, OCI-AML3, T11, read-out: IC50
[23] = OCI-AML-3, OCI-AML3, T11, read-out: pIC50 (converted)
[24] = MOLM-13, 96 h, MOLM-13, Day 4, read-out: Day 4 IC50
[25] = MOLM-13, 264 h, MOLM-13, Day 11, read-out: Day 11 IC50
[26] = MOLM-13, MOLM-13, T4, read-out: IC50
[27] = MOLM-13, MOLM-13, T4, read-out: pIC50 (converted)
[28] = MOLM-13, MOLM-13, T11, read-out: IC50
[29] = MOLM-13, MOLM-13, T11, read-out: pIC50 (converted)
[30] = MV4-11, 96 h, MV4-11, Day 4, read-out: Day 4 IC50
[31] = MV4-11, 264 h, MV4-11, Day 11, read-out: Day 11 IC50
[32] = MV4-11, MV4-11, T4, read-out: IC50
[33] = MV4-11, MV4-11, T4, read-out: pIC50 (converted)
[34] = MV4-11, MV4-11, T11, read-out: IC50
[35] = MV4-11, MV4-11, T11, read-out: pIC50 (converted)
[36] = NCI-H23, NCI-H23, T4, read-out: IC50
[37] = NCI-H23, NCI-H23, T4, read-out: pIC50 (converted)
[38] = NCI-H23, NCI-H23, T7, read-out: IC50
[39] = NCI-H23, NCI-H23, T7, read-out: pIC50 (converted)
[40] = NCI-H23, NCI-H23, T11, read-out: IC50
[41] = NCI-H23, NCI-H23, T11, read-out: pIC50 (converted)

CN(C)C/C=C/C(=O)Nc1ccc(CC(=O)Nc2ccc(-c3cc4c(N5CCOCC5)ncnc4[nH]3)cc2)cc1 [Compound 5]
pIC50 [1, 7]: 5.83 | IC50 [1, 8]: 1480 nM | pIC50 [1, 9]: 6.06 | IC50 [1, 10]: 871 nM | pIC50 [1, 11]: 6.28 | IC50 [1, 12]: 525 nM | % max ([1]; MIAPaCa-2, T4): 95% | % max ([1]; MIAPaCa-2, T7): 98% | % max ([1]; MIAPaCa-2, T11): 99% | pIC50 [2, 13]: < 5.30 | pIC50 [2, 14]: < 5.35 | pIC50 ([2]; KG-1, KG-1, T4, read-out: IC50): < 5.30 | IC50 [2, 15]: > 5010 nM | pIC50 [2, 16]: 5.35 | IC50 [2, 17]: 4470 nM | % max ([2]; KG-1, T4): <50% | % max ([2]; KG-1, T11): 52% | pIC50 [3, 18]: 6.35 | pIC50 [3, 19]: 6.34 | pIC50 [3, 20]: 6.35 | IC50 [3, 21]: 447 nM | pIC50 [3, 22]: 6.34 | IC50 [3, 23]: 457 nM | % max ([3]; OCI-AML3, T4): 100% | % max ([3]; OCI-AML3, T11): 100% | pIC50 [4, 24]: 6.82 | pIC50 [4, 25]: 6.42 | pIC50 [4, 26]: 6.82 | IC50 [4, 27]: 148 nM | pIC50 [4, 28]: 6.42 | IC50 [4, 29]: 380 nM | % max ([4]; MOLM-13, T4): 97% | % max ([4]; MOLM-13, T11): 98% | pIC50 [5, 30]: 6.38 | pIC50 [5, 31]: 6.31 | pIC50 [5, 32]: 6.38 | IC50 [5, 33]: 417 nM | pIC50 [5, 34]: 6.31 | IC50 [5, 35]: 490 nM | % max ([5]; MV4-11, T4): 83% | % max ([5]; MV4-11, T11): 83% | pIC50 [6, 36]: < 5.30 | IC50 [6, 37]: > 5010 nM | pIC50 [6, 38]: < 5.30 | IC50 [6, 39]: > 5010 nM | pIC50 [6, 40]: < 5.30 | IC50 [6, 41]: > 5010 nM | % max ([6]; NCI-H23, T4): <50% | % max ([6]; NCI-H23, T7): <50% | % max ([6]; NCI-H23, T11): <50%

C=CC(=O)NC1CCCN(Cc2ccnc(C(=O)Nc3ccc(-c4cc5c(N6CCOCC6)ncnc5[nH]4)cc3)c2)C1 (stereo not shown) [Compound 10]
pIC50 [1, 7]: 6.57 | IC50 [1, 8]: 269 nM | pIC50 [1, 9]: 6.64 | IC50 [1, 10]: 229 nM | pIC50 [1, 11]: 6.66 | IC50 [1, 12]: 219 nM | % max ([1]; MIAPaCa-2, T4): 96% | % max ([1]; MIAPaCa-2, T7): 98% | % max ([1]; MIAPaCa-2, T11): 99% | pIC50 [2, 13]: 6.28 | pIC50 [2, 14]: 6.52 | pIC50 ([2]; KG-1, KG-1, T4, read-out: IC50): 6.28 | IC50 [2, 15]: 525 nM | pIC50 [2, 16]: 6.52 | IC50 [2, 17]: 302 nM | % max ([2]; KG-1, T4): 100% | % max ([2]; KG-1, T11): 100% | pIC50 [3, 18]: 6.96 | pIC50 [3, 19]: 6.92 | pIC50 [3, 20]: 6.96 | IC50 [3, 21]: 110 nM | pIC50 [3, 22]: 6.92 | IC50 [3, 23]: 123 nM | % max ([3]; OCI-AML3, T4): 100% | % max ([3]; OCI-AML3, T11): 100% | pIC50 [4, 24]: 7.10 | pIC50 [4, 25]: 7.05 | pIC50 [4, 26]: 7.10 | IC50 [4, 27]: 77.6 nM | pIC50 [4, 28]: 7.05 | IC50 [4, 29]: 91.2 nM | % max ([4]; MOLM-13, T4): 98% | % max ([4]; MOLM-13, T11): 98% | pIC50 [5, 30]: 6.77 | pIC50 [5, 31]: 6.77 | pIC50 [5, 32]: 6.77 | IC50 [5, 33]: 174 nM | pIC50 [5, 34]: 6.77 | IC50 [5, 35]: 174 nM | % max ([5]; MV4-11, T4): 90% | % max ([5]; MV4-11, T11): 90% | pIC50 [6, 36]: 6.46 | IC50 [6, 37]: 355 nM | pIC50 [6, 38]: 6.70 | IC50 [6, 39]: 263 nM | pIC50 [6, 40]: 6.72 | IC50 [6, 41]: 191 nM | % max ([6]; NCI-H23, T4): 92% | % max ([6]; NCI-H23, T7): 96% | % max ([6]; NCI-H23, T11): 98%
